Data from US5756473A, “6-O-methyl erythromycin D and process for making” (Abbott Laboratories, priority 1995, dated 1998).
Converted amounts (≈) assume the structure as drawn. Where two headings read alike, the source gives them in different places.

Experiments:
Staphylococcus aureus = assay: In vitro antibacterial activity, agar dilution MIC (Staphylococcus aureus); format: cell-based; conditions: BHI agar, 35-37 °C, 20 to 24 hours
Experimental: (§1) The 6-O-methyl erythromycin D compound of the present invention was assayed in vitro for antibacterial activity as follows: Twelve petri dishes containing successive aqueous dilutions of the test compound mixed with 10 mL of sterilized Brain Heart Infusion (BHI) agar (Difco 0418-01-5) were prepared. Each plate was inoculated with 1:100 (or 1:10 for slow-growing strains, such as Micrococcus and Streptococcus) dilutions of up to 32 different microorganisms, using a Steers replicator block. The inoculated plates were incubated at 35°-37° C. for 20 to 24 hours. In addition, a control plate, using BHI agar containing no test compound, was prepared and incubated at the beginning and end of each test.
(§2) An additional plate containing a compound having known susceptibility patterns for the organisms being tested and belonging to the same antibiotic class as the test compound was also prepared and incubated as a further control, as well as to provide test-to-test comparability. Erythromycin A was used for this purpose.
(§3) After incubation, each disk was read. The minimum inhibitory concentration (MIC) was defined as the lowest concentration of drug yielding no growth, a slight haze, or sparsely isolated colonies on the inoculum spot as compared to the growth control.

[1] = system: Staphylococcus epidermidis; assay: In vitro antibacterial activity, agar dilution MIC (Staphylococcus epidermidis); format: cell-based
Experimental: as §1, §2, §3

Enterococcus faecium = assay: In vitro antibacterial activity, agar dilution MIC (Enterococcus faecium); format: cell-based; conditions: ATCC8043, strain ATCC 8043, BHI agar, 35-37 °C, 20 to 24 hours
Streptococcus bovis = assay: In vitro antibacterial activity, agar dilution MIC (Streptococcus bovis); format: cell-based; conditions: Streptococcus equinus
Experimental: as §1, §2, §3

Streptococcus agalactiae = assay: In vitro antibacterial activity, agar dilution MIC (Streptococcus agalactiae); format: cell-based
Experimental: as §1, §2, §3

Streptococcus pyogenes = assay: In vitro antibacterial activity, agar dilution MIC (Streptococcus pyogenes); format: cell-based; conditions: 35-37 °C, 20 to 24 hours
Experimental: as §1, §2, §3

Micrococcus luteus = assay: In vitro antibacterial activity, agar dilution MIC (Micrococcus luteus); format: cell-based
Experimental: as §1, §2, §3

Escherichia coli = assay: In vitro antibacterial activity, agar dilution MIC (Escherichia coli); format: cell-based; conditions: 35-37 °C, 20 to 24 hours
Enterobacter aerogenes = assay: In vitro antibacterial activity, agar dilution MIC (Enterobacter aerogenes); format: cell-based; conditions: Klebsiella aerogenes, ATCC13048; strain ATCC 13048; BHI agar, 35-37 °C, 20 to 24 hours
[2] = system: Acinetobacter calcoaceticus; assay: microbe, parasite or virus in culture
Experimental: as §1, §2, §3

Klebsiella pneumoniae = assay: microbe, parasite or virus in culture; conditions: ATCC8045
Experimental: as §1, §2, §3

Providencia stuartii = assay: In vitro antibacterial activity, agar dilution MIC (Providencia stuartii); format: cell-based; conditions: strain CMX 640, BHI agar, 35-37 °C, 20 to 24 hours
Pseudomonas aeruginosa = assay: In vitro antibacterial activity, agar dilution MIC (Pseudomonas aeruginosa); format: cell-based; conditions: for MIC: Pseudomonas aeruginosa
Experimental: as §1, §2, §3

Mycobaceterium smegmatis = assay: In vitro antibacterial activity, agar dilution MIC (Mycobaceterium smegmatis); format: cell-based
Experimental: as §1, §2, §3

Nocardia asteroides = assay: In vitro antibacterial activity, agar dilution MIC (Nocardia asteroides); format: cell-based; conditions: ATCC9970, strain ATCC 9970, BHI agar, 35-37 °C, 20 to 24 hours
Experimental: as §1, §2, §3

Candida albicans = assay: microbe, parasite or virus in culture
Experimental: as §1, §2, §3

microorganisms = assay: In vitro assay of antibacterial activity (overall conclusion); format: cell-based; conditions: overall conclusion from Table 1
Experimental: Erythromycin A was used for this purpose.
After incubation, each disk was read.

[3] = Staphylococcus aureus, strain 1775 Cipro R
[4] = Staphylococcus aureus, strain A5177
[5] = Staphylococcus aureus, strain A5278
[6] = strain DC-2, BHI agar, read-out: MIC
[7] = strain Juhl, BHI agar, read-out: MIC
[8] = strain KNK 437, BHI agar, read-out: MIC
[9] = strain SS, BHI agar, read-out: MIC
[10] = strain 2862, BHI agar, 35-37 °C, 20 to 24 hours
[11] = strain 5263, BHI agar, 35-37 °C, 20 to 24 hours
[12] = strain A5007, BHI agar, 35-37 °C, 20 to 24 hours
[13] = strain K799/WT, BHI agar, 35-37 °C, 20 to 24 hours

## CC[C@H]1OC(=O)[C@H](C)[C@@H](O[C@H]2C[C@@](C)(OC)[C@@H](O)[C@H](C)O2)[C@H](C)[C@@H](O[C@@H]2O[C@H](C)C[C@H](N(C)C)[C@H]2O)[C@](C)(O)C[C@@H](C)C(=O)[C@H](C)[C@@H](O)[C@]1(C)O [Erythromycin A, reference compound]
Staphylococcus aureus; Staphylococcus aureus, ATCC6538P, strain ATCC 6538P
  MIC: 0.2 µg/mL (≈ 0.273 µM)
Staphylococcus aureus; Staphylococcus aureus, NCTC10649, strain NCTC 10649
  MIC: 0.2 µg/mL (≈ 0.273 µM)
Staphylococcus aureus; [3]
  MIC: > 100 µg/mL
Staphylococcus aureus; [4]
  MIC: 1.56 µg/mL (≈ 2.13 µM)
Staphylococcus aureus; [5]
  MIC: > 100 µg/mL
Staphylococcus aureus; Staphylococcus aureus, strain CMX 553
  MIC: 0.2 µg/mL (≈ 0.273 µM)
Staphylococcus aureus; Staphylococcus aureus, strain 642a
  MIC: 0.2 µg/mL (≈ 0.273 µM)
[1]
  MIC: 0.2 µg/mL (≈ 0.273 µM)
Enterococcus faecium
  MIC: 0.05 µg/mL (≈ 0.0681 µM)
Streptococcus bovis
  MIC: 0.02 µg/mL (≈ 0.0273 µM)
Streptococcus agalactiae
  MIC: 0.05 µg/mL (≈ 0.0681 µM)
Streptococcus pyogenes; strain 930 const, BHI agar
  MIC: > 100 µg/mL
Streptococcus pyogenes; strain 2548 induc, BHI agar
  MIC: 6.2 µg/mL (≈ 8.45 µM)
Streptococcus pyogenes; strain EES61, BHI agar
  MIC: 0.05 µg/mL (≈ 0.0681 µM)
Micrococcus luteus
  MIC: 0.01 µg/mL (≈ 0.0136 µM)
Micrococcus luteus; ATCC9341
  MIC: 0.05 µg/mL (≈ 0.0681 µM)
Escherichia coli; [6]
  MIC: 50 µg/mL (≈ 68.1 µM)
Escherichia coli; strain H560, BHI agar
  MIC: 2.5 µg/mL (≈ 3.41 µM)
Escherichia coli; [7]
  MIC: 50 µg/mL (≈ 68.1 µM)
Escherichia coli; [8]
  MIC: 50 µg/mL (≈ 68.1 µM)
Escherichia coli; [9]
  MIC: 0.2 µg/mL (≈ 0.273 µM)
Enterobacter aerogenes
  MIC: 100 µg/mL (≈ 136 µM)
[2]
  MIC: 12.5 µg/mL (≈ 17 µM)
Klebsiella pneumoniae
  MIC: 50 µg/mL (≈ 68.1 µM)
Providencia stuartii
  MIC: > 100 µg/mL
Pseudomonas aeruginosa
  MIC: > 100 µg/mL
Pseudomonas aeruginosa; [10]
  MIC: > 100 µg/mL
Pseudomonas aeruginosa; [11]
  MIC: > 100 µg/mL
Pseudomonas aeruginosa; [12]
  MIC: > 100 µg/mL
Pseudomonas aeruginosa; strain K799/61, BHI agar, 35-37 °C, 20 to 24 hours
  MIC: > 100 µg/mL
Pseudomonas aeruginosa; [13]
  MIC: > 100 µg/mL
Mycobaceterium smegmatis
  MIC: 12.5 µg/mL (≈ 17 µM)
Nocardia asteroides
  MIC: 0.05 µg/mL (≈ 0.0681 µM)

## CC[C@H]1OC(=O)[C@H](C)[C@@H](O[C@H]2C[C@@](C)(O)[C@@H](O)[C@H](C)O2)[C@H](C)[C@@H](O[C@@H]2O[C@H](C)C[C@H](N(C)C)[C@H]2O)[C@](C)(OC)C[C@@H](C)C(=O)[C@H](C)[C@@H](O)[C@H]1C [Example 3, 6-O-Methylerythromycin D]
Staphylococcus aureus; Staphylococcus aureus, ATCC6538P, strain ATCC 6538P, read-out: MIC
  MIC: 0.39 µg/mL (≈ 0.543 µM)
Staphylococcus aureus; Staphylococcus aureus, NCTC10649, strain NCTC 10649, read-out: MIC
  MIC: 0.39 µg/mL (≈ 0.543 µM)
Staphylococcus aureus; [3]
  MIC: > 100 µg/mL
Staphylococcus aureus; [4]
  MIC: 3.1 µg/mL (≈ 4.32 µM)
Staphylococcus aureus; [5]
  MIC: > 100 µg/mL
Staphylococcus aureus; Staphylococcus aureus, strain 642a, read-out: MIC
  MIC: 0.39 µg/mL (≈ 0.543 µM)
Staphylococcus aureus; strain CMX 553
  MIC: 0.39 µg/mL (≈ 0.543 µM)
[1]; strain 3519, BHI agar, 35-37 °C, 20 to 24 hours, read-out: MIC
  MIC: 0.39 µg/mL (≈ 0.543 µM)
Enterococcus faecium
  MIC: 0.1 µg/mL (≈ 0.139 µM)
Streptococcus bovis; strain A5169, BHI agar, 35-37 °C, 20 to 24 hours, read-out: MIC
  MIC: 0.01 µg/mL (≈ 0.0139 µM)
Streptococcus agalactiae; strain 508, BHI agar, 35-37 °C, 20 to 24 hours, read-out: MIC
  MIC: 0.05 µg/mL (≈ 0.0696 µM)
Streptococcus pyogenes; strain 930 const, BHI agar
  MIC: > 100 µg/mL
Streptococcus pyogenes; strain 2548 induc, BHI agar
  MIC: 3.1 µg/mL (≈ 4.32 µM)
Streptococcus pyogenes; strain EES61, BHI agar, read-out: MIC
  MIC: 0.05 µg/mL (≈ 0.0696 µM)
Micrococcus luteus
  MIC: 1.56 µg/mL (≈ 2.17 µM)
Micrococcus luteus; ATCC9341, strain ATCC 9341, BHI agar, 35-37 °C, 20 to 24 hours, read-out: MIC
  MIC: 0.05 µg/mL (≈ 0.0696 µM)
Escherichia coli; [6]
  MIC: > 100 µg/mL
Escherichia coli; strain H560, BHI agar
  MIC: > 100 µg/mL
Escherichia coli; [7]
  MIC: > 100 µg/mL
Escherichia coli; [8]
  MIC: > 100 µg/mL
Escherichia coli; [9]
  MIC: 0.39 µg/mL (≈ 0.543 µM)
Enterobacter aerogenes
  MIC: > 100 µg/mL
[2]
  MIC: > 100 µg/mL
Candida albicans
  MIC: > 100 µg/mL
Klebsiella pneumoniae
  MIC: > 100 µg/mL
Providencia stuartii
  MIC: > 100 µg/mL
Pseudomonas aeruginosa
  MIC: 1.56 µg/mL (≈ 2.17 µM)
Pseudomonas aeruginosa; Pseudomonas aeruginosa K799/61, comparison with Erythromycin A control
  antibacterial effectiveness (in words): significantly more effective
Pseudomonas aeruginosa; [10]
  MIC: > 100 µg/mL
Pseudomonas aeruginosa; [11]
  MIC: > 100 µg/mL
Pseudomonas aeruginosa; [12]
  MIC: > 100 µg/mL
Pseudomonas aeruginosa; strain BMH10, BHI agar, 35-37 °C, 20 to 24 hours
  MIC: > 100 µg/mL
Pseudomonas aeruginosa; [13]
  MIC: > 100 µg/mL
Mycobaceterium smegmatis; Mycobaceterium smegmatis ATCC 114, comparison with Erythromycin A control
  antibacterial effectiveness (in words): significantly more effective
Mycobaceterium smegmatis; strain ATCC 114, BHI agar, 35-37 °C, 20 to 24 hours, read-out: MIC
  MIC: 0.78 µg/mL (≈ 1.09 µM)
Nocardia asteroides
  MIC: 0.05 µg/mL (≈ 0.0696 µM)
microorganisms
  antibacterial activity (in words): effective antibacterial agent
